MIC data for two compounds are collected here from patent US20230174584A1, “Antibiotic Compounds” (priority 2019, published 2023).

Converted amounts (≈) assume the structure as drawn. A value given as a limit tells only on which side of the number the result lay.

Common to all, as to experiment: MIC assay
Common to all, as to assay type: cell-based, Enterococcus faecium

One assay deals with E. faecium E2373. To be noted: Enterococcus faecium, E2373. The procedure, abridged: (§1)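 Twofold serial dilutions, biological triplicates, combined with an equal volume of bacterial suspension (10^6 CFU/mL) in TSB/0.002% polysorbate 80. Incubation lasted 24 h at 37 °C, shaking at 600 rpm. Median of replicates gives MIC.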
The test system of another assay is E. faecium E980. The following applies: Enterococcus faecium, E980. The procedure, abridged:
as §1

Another assay has as its system E. faecium E0013. To be noted: Enterococcus faecium, E0013. The procedure, abridged:
as §1

The next assay relates to E. faecium E7319. The following applies: Enterococcus faecium, E7319. The procedure, abridged:
as §1

The next assay deals with E. faecium E0745. To be noted: Enterococcus faecium, E0745. The procedure, abridged:
as §1

The next assay relates to E. faecium E6016. The following applies: Enterococcus faecium, E6016. In short, it runs like this: as §1
The subject of a further assay is E. faecium E1130. The following applies: Enterococcus faecium, E1130. The procedure, abridged: as §1
The subject of another assay is E. faecium E0333. To be noted: Enterococcus faecium, E0333. In short, it runs like this:
as §1

The next assay deals with E. faecium E1763. To be noted: Enterococcus faecium, E1763. In short, it runs like this: as §1
A further assay deals with E. faecium E7464. To be noted: Enterococcus faecium, E7464. In short, it runs like this: as §1
In a further assay the test system is E. faecium E1679. To be noted: Enterococcus faecium, E1679. The procedure, abridged:
as §1

For the next assay, the system named is E. faecium E7424. The following applies: Enterococcus faecium, E7424. In short, it runs like this:
as §1

Another assay has as its system E. faecium E8218. The following applies: Enterococcus faecium, E8218. In short, it runs like this: as §1
Another assay has as its system E. faecium E0506. The following applies: Enterococcus faecium, E0506. The procedure, abridged:
as §1

A further assay concerns E. faecium E8237. To be noted: Enterococcus faecium, E8237. The procedure, abridged: as §1
The test system of the next assay is E. faecium E8235. The following applies: Enterococcus faecium, E8235. The procedure, abridged:
as §1

The test system of another assay is E. faecium E0300. To be noted: Enterococcus faecium, E0300. The procedure, abridged: as §1
The next assay concerns E. faecium E7413. To be noted: Enterococcus faecium, E7413. In short, it runs like this:
as §1

A further assay deals with E. faecium E0072. The following applies: Enterococcus faecium, E0072. The procedure, abridged: as §1
The next assay concerns E. faecium EO321. To be noted: Enterococcus faecium, EO321. The procedure, abridged: as §1
Another assay has as its system E. faecium E7401. The following applies: Enterococcus faecium, E7401. The procedure, abridged: as §1

As a reminder, the MIC is the smallest concentration in the dilution series that meets the test's criterion for growth inhibition. `CCCCCCCCCCNCCN[C@@]1(C)C[C@H](O[C@H]2[C@H](Oc3c4cc5cc3Oc3ccc(cc3Cl)[C@@H](O)[C@@H](NC(=O)[C@@H](CC(C)C)NC)C(=O)N[C@@H](CC(N)=O)C(=O)N[C@H]5C(=O)N[C@H]3C(=O)N[C@H](C(=O)N[C@H](C(=O)O)c5cc(O)c(CNCP(=O)(O)O)c(O)c5-c5cc3ccc5O)[C@H](O)c3ccc(c(Cl)c3)O4)O[C@H](CO)[C@@H](O)[C@@H]2O)O[C@@H](C)[C@H]1O` [Telavancin, reference compound]: the MIC stood at 8 µg/mL (≈ 4.56 µM) against E. faecium E2373; 0.0156 µg/mL (≈ 0.0089 µM) in the assay on E. faecium E980; 4 µg/mL (≈ 2.28 µM) against E. faecium E0013; 8 µg/mL (≈ 4.56 µM) in the assay on E. faecium E7319; 4 µg/mL (≈ 2.28 µM) in the assay with E. faecium E0745; 4 µg/mL (≈ 2.28 µM) in the assay on E. faecium E6016. The MIC in the assay with E. faecium E1130 was at most 0.008 µg/mL; in the assay on E. faecium E0333, 8 µg/mL (≈ 4.56 µM); in the assay on E. faecium E1763 it was 1 µg/mL (≈ 0.57 µM); against E. faecium E7464, at most 0.008 µg/mL; in the assay on E. faecium E1679 it was 16 µg/mL (≈ 9.11 µM); in the assay with E. faecium E7424 it was at most 0.008 µg/mL. Further, the MIC was at most 0.008 µg/mL against E. faecium E8218; 4 µg/mL (≈ 2.28 µM) in the assay with E. faecium E0506; 16 µg/mL (≈ 9.11 µM) in the assay with E. faecium E8237; at most 0.008 µg/mL against E. faecium E8235; 8 µg/mL (≈ 4.56 µM) in the assay with E. faecium E0300; 8 µg/mL (≈ 4.56 µM) in the assay with E. faecium E7413. In addition, the minimal inhibitory concentration (MIC) is 2 µg/mL (≈ 1.14 µM) in the assay with E. faecium E0072, 16 µg/mL (≈ 9.11 µM) in the assay with E. faecium EO321 and at most 0.008 µg/mL with E. faecium E7401.

Turning to `CN[C@H](CC(C)C)C(=O)N[C@H]1C(=O)N[C@@H](CC(N)=O)C(=O)N[C@H]2C(=O)N[C@H]3C(=O)N[C@H](C(=O)N[C@H](C(=O)O)c4cc(O)cc(O)c4-c4cc3ccc4O)[C@H](O)c3ccc(c(Cl)c3)Oc3cc2cc(c3O[C@@H]2O[C@H](CO)[C@@H](O)[C@H](O)[C@H]2O[C@H]2C[C@](C)(N)[C@H](O)[C@H](C)O2)Oc2ccc(cc2Cl)[C@H]1O` [Vancomycin, reference compound], the MIC against E. faecium E2373 is above 128 µg/mL; in the assay with E. faecium E980, 0.5 µg/mL (≈ 0.345 µM); in the assay on E. faecium E0013 it was above 128 µg/mL; in the assay on E. faecium E7319, above 128 µg/mL; against E. faecium E0745, above 128 µg/mL; against E. faecium E6016 it was above 128 µg/mL. Moreover, the MIC was above 128 µg/mL against E. faecium E1130; above 128 µg/mL in the assay on E. faecium E0333; 128 µg/mL (≈ 88.3 µM) with E. faecium E1763; 16 µg/mL (≈ 11 µM) in the assay on E. faecium E7464; above 128 µg/mL against E. faecium E1679; 4 µg/mL (≈ 2.76 µM) in the assay on E. faecium E7424. Further, the MIC with E. faecium E8218 is 8 µg/mL (≈ 5.52 µM); with E. faecium E0506, above 128 µg/mL; with E. faecium E8237, above 128 µg/mL; against E. faecium E8235 it was 16 µg/mL (≈ 11 µM); with E. faecium E0300, above 128 µg/mL; with E. faecium E7413, above 128 µg/mL. In addition, the MIC in the assay on E. faecium E0072 was above 128 µg/mL; in the assay on E. faecium EO321, above 128 µg/mL; in the assay with E. faecium E7401, 16 µg/mL (≈ 11 µM).
